According to US9421209B2, “Kinase modulators” (Rhizen Pharmaceuticals SA, priority 2009, dated 2016):
Where two headings read alike, the source gives them in different places.

What was measured:
[1] = target: P110 δ/Pi3K δ (Homo sapiens, UniProt O00329); experiment: Fluorescent (HTRF) determination of PI3K enzyme activity, δ isoform; type: biochemical; design: inhibition: dose or concentration left out as unconfirmed
Procedure, shortened: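 IC50 fitted from percent inhibition relative to blank and enzyme-only wells. Human PI3Kδ converts PIP2 to PIP3 after addition of 400 μM ATP solution, 30 min at room temperature. Product read by time-resolved FRET after stop and 6–18 h dark incubation with detection reagents.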

[2] = target: P110β (Homo sapiens, UniProt P42338); experiment: Fluorescent (HTRF) determination of PI3K enzyme activity, β isoform; type: biochemical
P110β, sequence (P42338 whole entry, canonical isoform): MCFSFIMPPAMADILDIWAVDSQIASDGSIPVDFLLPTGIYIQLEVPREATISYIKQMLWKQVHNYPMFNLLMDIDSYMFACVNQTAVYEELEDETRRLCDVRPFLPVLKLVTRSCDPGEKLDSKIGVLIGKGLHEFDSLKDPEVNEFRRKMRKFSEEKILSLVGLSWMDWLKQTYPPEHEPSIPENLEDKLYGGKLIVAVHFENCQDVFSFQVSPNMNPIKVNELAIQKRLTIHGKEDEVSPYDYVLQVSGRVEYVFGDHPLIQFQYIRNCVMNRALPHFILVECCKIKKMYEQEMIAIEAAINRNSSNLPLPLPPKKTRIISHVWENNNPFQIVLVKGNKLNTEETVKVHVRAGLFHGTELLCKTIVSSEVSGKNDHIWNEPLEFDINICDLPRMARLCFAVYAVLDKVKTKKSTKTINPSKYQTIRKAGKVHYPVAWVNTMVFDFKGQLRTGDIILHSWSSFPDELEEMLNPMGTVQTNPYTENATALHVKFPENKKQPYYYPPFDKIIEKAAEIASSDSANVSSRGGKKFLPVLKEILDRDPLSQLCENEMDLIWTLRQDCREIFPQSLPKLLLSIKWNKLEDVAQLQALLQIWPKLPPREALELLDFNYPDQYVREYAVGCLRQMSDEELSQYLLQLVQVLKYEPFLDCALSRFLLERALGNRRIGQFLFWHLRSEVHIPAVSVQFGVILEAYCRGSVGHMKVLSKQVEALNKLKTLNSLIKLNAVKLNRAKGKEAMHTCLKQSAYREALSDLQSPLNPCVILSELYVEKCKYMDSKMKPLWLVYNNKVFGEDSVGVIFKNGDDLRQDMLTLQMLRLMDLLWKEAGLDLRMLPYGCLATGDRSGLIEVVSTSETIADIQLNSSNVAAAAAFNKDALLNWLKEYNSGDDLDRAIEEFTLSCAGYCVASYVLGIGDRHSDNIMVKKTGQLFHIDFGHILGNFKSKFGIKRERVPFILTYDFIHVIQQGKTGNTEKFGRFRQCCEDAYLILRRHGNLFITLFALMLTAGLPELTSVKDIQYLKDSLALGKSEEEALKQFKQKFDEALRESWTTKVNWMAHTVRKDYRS
P110β, sequence (P27986 whole entry partner, canonical isoform): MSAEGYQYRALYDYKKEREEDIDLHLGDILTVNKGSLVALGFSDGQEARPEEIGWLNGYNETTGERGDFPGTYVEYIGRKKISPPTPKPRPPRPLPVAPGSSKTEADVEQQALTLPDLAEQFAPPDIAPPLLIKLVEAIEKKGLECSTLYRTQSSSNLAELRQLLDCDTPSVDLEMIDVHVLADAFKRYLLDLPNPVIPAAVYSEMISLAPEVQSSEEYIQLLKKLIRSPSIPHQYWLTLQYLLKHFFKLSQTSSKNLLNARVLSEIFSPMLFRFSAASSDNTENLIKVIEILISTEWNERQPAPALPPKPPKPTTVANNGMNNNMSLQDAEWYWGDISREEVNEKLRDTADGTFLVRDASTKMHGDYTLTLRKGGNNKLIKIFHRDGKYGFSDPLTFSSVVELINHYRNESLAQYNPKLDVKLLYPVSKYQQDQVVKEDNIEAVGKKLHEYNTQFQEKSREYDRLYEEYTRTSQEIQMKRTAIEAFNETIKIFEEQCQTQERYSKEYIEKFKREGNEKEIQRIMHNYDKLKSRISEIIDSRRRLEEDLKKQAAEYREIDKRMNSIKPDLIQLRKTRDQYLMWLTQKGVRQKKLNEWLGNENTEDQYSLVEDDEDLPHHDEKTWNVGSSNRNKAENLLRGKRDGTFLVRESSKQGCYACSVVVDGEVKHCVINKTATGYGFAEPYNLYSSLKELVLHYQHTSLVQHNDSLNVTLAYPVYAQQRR
Source text: (§1) Assay 1: Fluorescent determination of PI3Kinase Kinase enzyme activity
(§2) Phosphoinositide 3 kinases (PI3K) belong to a class of lipid kinases that play a critical role in the regulation of several key cellular processes. The PI3K are capable of phosphorylating the 3-hydroxy position of phosphoinositols thereby generating second messengers involved in downstream signalling events. The homogenous time resolved fluorescence (HTRF) assay allows detection of 3,4,5-triphosphate (PIP3) formed as a result of phosphorylation of phosphotidylinositol 4,5-biphosphate (PIP2) by PI3K isoforms such as α, β, γ or δ.
(§3) PI3K isoform activity for α, β, γ or δ was determined using a PI3K human HTRF™ Assay Kit (Millipore, Billerica, Mass.) with modifications. All incubations were carried out at room temperature. Briefly, 0.5 μl of 40× inhibitor (in 100% DMSO) or 100% DMSO were added to each well of a 384-well black plate (Greiner Bio-One, Monroe, N.C.) containing 14.5 μl 1× reaction buffer/PIP2 (10 mM MgCl2, 5 mM DTT, 1.38 μM PIP2) mix with or without enzyme and incubated for 10 min. After the initial incubation, 5 μl/well of 400 μM ATP was added and incubated for an additional 30 minutes. Reaction was terminated by adding 5 μl/well stop solution (Millipore, Billerica, Mass.). Five microliters of detection mix (Millipore, Billerica, Mass.) were then added to each well and was incubated for 6-18 h in the dark. HRTF ratio was measured on a microplate reader (BMG Labtech., Germany) at an excitation wavelength of 337 nm and emission wavelengths of 665 and 620 nm with an integration time of […]. Data were analyzed using Graphpad Prism (Graphpad software; San Diego Calif.) for IC50 determination. Percent inhibition was calculated based on the values for the blank and enzyme controls. The results are provided below in Table 2 & 3.

[3] = target: P110γ (Homo sapiens, UniProt P48736); experiment: Fluorescent (HTRF) determination of PI3K enzyme activity, γ isoform; type: biochemical
P110γ, sequence (P48736 whole entry, canonical isoform): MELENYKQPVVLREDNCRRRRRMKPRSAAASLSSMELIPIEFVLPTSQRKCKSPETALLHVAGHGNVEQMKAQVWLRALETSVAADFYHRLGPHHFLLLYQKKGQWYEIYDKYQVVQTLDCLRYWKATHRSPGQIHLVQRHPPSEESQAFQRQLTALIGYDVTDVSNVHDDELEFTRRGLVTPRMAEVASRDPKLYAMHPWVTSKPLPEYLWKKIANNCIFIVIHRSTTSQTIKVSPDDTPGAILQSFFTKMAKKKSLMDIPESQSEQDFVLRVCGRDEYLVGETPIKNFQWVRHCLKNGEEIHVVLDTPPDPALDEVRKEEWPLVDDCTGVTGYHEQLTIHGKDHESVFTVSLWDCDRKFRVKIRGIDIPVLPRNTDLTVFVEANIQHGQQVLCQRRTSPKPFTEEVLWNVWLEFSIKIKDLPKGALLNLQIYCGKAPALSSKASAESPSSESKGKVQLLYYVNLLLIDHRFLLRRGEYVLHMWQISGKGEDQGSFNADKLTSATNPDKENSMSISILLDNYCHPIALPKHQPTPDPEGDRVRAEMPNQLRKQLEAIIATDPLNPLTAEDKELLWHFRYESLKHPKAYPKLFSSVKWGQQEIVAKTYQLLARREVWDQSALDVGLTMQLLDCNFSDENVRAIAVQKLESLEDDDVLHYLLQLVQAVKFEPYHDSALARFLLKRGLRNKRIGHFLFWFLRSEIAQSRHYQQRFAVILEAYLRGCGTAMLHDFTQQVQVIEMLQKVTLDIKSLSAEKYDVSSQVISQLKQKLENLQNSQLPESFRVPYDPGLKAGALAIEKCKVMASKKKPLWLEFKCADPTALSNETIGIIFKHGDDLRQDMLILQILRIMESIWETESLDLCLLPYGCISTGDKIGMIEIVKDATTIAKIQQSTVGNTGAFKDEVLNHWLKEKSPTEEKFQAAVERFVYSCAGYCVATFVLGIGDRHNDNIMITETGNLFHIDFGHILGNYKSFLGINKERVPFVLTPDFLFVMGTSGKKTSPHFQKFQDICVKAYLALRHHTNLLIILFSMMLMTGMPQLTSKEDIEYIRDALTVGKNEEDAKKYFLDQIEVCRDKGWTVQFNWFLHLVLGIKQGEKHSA
Source text: as §1, §2, §3

[4] = target: P110α (Homo sapiens, UniProt P42336); experiment: Fluorescent (HTRF) determination of PI3K enzyme activity, α isoform; type: biochemical
P110α, sequence (P42336 whole entry, canonical isoform): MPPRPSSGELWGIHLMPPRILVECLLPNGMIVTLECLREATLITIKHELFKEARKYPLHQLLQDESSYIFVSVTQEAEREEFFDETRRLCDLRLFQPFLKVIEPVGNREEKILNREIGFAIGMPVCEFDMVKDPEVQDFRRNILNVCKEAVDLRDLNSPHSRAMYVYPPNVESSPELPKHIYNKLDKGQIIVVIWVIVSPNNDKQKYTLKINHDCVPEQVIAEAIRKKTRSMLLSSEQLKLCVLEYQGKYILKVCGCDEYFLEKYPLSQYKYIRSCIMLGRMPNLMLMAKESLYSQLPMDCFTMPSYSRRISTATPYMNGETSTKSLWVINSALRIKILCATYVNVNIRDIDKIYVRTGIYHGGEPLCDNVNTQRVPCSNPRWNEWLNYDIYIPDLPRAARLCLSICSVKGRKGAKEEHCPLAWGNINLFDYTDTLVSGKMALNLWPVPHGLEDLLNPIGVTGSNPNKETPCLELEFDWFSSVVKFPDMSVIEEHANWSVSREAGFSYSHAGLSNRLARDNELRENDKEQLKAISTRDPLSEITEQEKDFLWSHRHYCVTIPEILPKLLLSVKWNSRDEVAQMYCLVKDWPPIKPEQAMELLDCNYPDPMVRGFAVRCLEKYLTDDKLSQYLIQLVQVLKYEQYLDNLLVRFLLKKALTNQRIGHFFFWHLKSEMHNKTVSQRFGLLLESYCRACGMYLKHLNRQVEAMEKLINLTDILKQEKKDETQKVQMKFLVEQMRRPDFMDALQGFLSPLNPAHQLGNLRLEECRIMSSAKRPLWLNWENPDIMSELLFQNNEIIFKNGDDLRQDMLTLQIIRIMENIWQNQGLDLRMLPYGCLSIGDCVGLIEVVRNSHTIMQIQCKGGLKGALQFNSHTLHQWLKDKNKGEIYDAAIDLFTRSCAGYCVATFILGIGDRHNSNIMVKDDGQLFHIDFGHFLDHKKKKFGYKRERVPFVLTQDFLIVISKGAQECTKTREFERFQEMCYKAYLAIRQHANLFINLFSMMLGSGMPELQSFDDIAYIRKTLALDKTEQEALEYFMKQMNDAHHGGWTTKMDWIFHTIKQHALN
P110α, sequence (P27986 whole entry partner, canonical isoform): as the sequence (P27986 whole entry partner, canonical isoform) above
Source text: as §1, §2, §3

[5] = read-out: P110 δ/ Pi3K δ IC 50 nM

P110 δ/Pi3K δ, sequence (O00329 whole entry, canonical isoform): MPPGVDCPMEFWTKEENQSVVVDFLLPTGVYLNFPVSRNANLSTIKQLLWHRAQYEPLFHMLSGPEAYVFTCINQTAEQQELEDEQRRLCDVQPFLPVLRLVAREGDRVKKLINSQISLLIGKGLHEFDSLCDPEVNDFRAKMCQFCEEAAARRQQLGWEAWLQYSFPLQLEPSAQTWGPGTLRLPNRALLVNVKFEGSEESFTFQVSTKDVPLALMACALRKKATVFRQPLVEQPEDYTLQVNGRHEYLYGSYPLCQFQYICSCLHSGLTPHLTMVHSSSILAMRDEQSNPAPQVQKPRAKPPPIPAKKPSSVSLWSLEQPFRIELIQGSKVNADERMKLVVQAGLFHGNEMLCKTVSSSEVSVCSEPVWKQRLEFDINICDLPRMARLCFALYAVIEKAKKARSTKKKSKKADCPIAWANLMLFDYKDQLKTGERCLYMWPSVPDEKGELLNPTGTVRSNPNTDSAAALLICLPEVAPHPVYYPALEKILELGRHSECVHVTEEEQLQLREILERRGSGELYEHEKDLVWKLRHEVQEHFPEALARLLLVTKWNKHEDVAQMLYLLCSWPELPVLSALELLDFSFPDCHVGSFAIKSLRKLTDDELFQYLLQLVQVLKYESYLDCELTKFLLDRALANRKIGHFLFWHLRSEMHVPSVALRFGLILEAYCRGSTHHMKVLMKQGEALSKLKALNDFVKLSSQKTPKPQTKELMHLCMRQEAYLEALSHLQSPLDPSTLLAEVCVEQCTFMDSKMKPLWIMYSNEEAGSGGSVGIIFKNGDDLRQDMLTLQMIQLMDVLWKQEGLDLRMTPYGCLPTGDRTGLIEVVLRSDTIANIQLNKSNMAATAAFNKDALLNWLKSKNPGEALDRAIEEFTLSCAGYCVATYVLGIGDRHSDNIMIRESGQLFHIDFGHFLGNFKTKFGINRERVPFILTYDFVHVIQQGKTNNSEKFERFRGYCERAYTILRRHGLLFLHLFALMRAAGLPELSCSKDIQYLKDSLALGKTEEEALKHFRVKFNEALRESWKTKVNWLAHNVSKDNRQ
P110 δ/Pi3K δ, sequence (P27986 whole entry partner, canonical isoform): as the sequence (P27986 whole entry partner, canonical isoform) above

| inhibition at 1 µM [1] [%] | IC50 ([1]; read-out: P110 δ/Pi3K δ IC 50 nM) [nM] | inhibition at 1 µM [2] [%] | inhibition at 1 µM [3] [%] | melting point [°C] | inhibition [1] [%] | inhibition at 1 µM [4] [%] | IC50 [1, 5] [nM] | SMILES |
| --- | --- | --- | --- | --- | --- | --- | --- | --- |
| 50 to 100 | < 250 | 25 to 50 | 25 to 50 | 203 to 206 |  |  |  | C[C@H](Nc1ncnc2[nH]cnc12)c1oc2ccc(F)cc2c(=O)c1-c1cccc(F)c1 [Example 74, (S)-2-(1-(9H-purin-6-ylamino)ethyl)-6-fluoro-3-(3-fluorophenyl)-4H-chromen-4-one] |
|  |  | 25 to 50 |  | 244 to 247 | 50 to 100 | 25 to 50 |  | CC(c1oc2ccccc2c(=O)c1-c1cccc(F)c1)n1nc(-c2ccc(O)c(F)c2)c2c(N)ncnc21 (stereo not drawn) [Example 85, 2-(1-(4-amino-3-(3-fluoro-4-hydroxyphenyl)-1H-pyrazolo[3,4-d]pyrimidin-1-yl)ethyl)-3-(3-fluorophenyl)-4H-chromen-4-one] |
|  |  | 50 to 100 | 50 to 100 | 253 to 255 | 50 to 100 |  | < 250 | Cc1n[nH]c2cc(-c3nn(C(C)c4oc5ccc(F)cc5c(=O)c4-c4ccccc4)c4ncnc(N)c34)ccc12 (stereo not drawn) [Example 105, 2-(1-(4-amino-3-(3-methyl-1H-indazol-6-yl)-1H-pyrazolo[3,4-d]pyrimidin-1-yl)ethyl)-6-fluoro-3-phenyl-4H-chromen-4-one] |
|  |  | < 25 | 25 to 50 | 254 to 256 | < 50 |  |  | Cc1n[nH]c2ccc(-c3nn(C(C)c4oc5ccccc5c(=O)c4-c4cccc(F)c4)c4ncnc(N)c34)cc12 (stereo not drawn) [Example 106, 2-(1-(4-amino-3-(3-methyl-1H-indazol-5-yl)-1H-pyrazolo[3,4-d]pyrimidin-1-yl)ethyl)-3-(3-fluorophenyl)-4H-chromen-4-one] |
|  |  | 25 to 50 | 50 to 100 | 234 to 236 | 50 to 100 |  | < 250 | Cc1n[nH]c2cc(-c3nn(C(C)c4oc5ccc(F)cc5c(=O)c4-c4cccc(F)c4)c4ncnc(N)c34)ccc12 (stereo not drawn) [Example 108, 2-(1-(4-amino-3-(3-methyl-1H-indazol-6-yl)-1H-pyrazolo[3,4-d]pyrimidin-1-yl)ethyl)-6-fluoro-3-(3-fluorophenyl)-4H-chromen-4-one] |
|  |  | < 25 | 50 to 100 | 270 to 273 | 50 to 100 |  |  | CCc1n[nH]c2cc(-c3nn(C(C)c4oc5ccccc5c(=O)c4-c4cccc(F)c4)c4ncnc(N)c34)ccc12 (stereo not drawn) [Example 110, 2-(1-(4-amino-3-(3-ethyl-1H-indazol-6-yl)-1H-pyrazolo[3,4-d]pyrimidin-1-yl)ethyl)-3-(3-fluorophenyl)-4H-chromen-4-one] |
|  |  | < 25 |  | 224 to 227 | < 50 | < 25 |  | COc1ncc(-c2nn(C(C)c3oc4ccccc4c(=O)c3-c3cccc(F)c3)c3ncnc(N)c23)cn1 (stereo not drawn) [Example 112, 2-(1-(4-amino-3-(2-methoxypyrimidin-5-yl)-1H-pyrazolo[3,4-d]pyrimidin-1-yl)ethyl)-3-(3-fluorophenyl)-4H-chromen-4-one] |
|  |  | < 25 |  | 154 to 156 | 50 to 100 | < 25 | < 250 | Cc1nc2cc(-c3nn(C(C)c4oc5ccccc5c(=O)c4-c4cccc(F)c4)c4ncnc(N)c34)ccc2[nH]1 (stereo not drawn) [Example 115, 2-(1-(4-amino-3-(2-methyl-1H-benzo[d]imidazol-5-yl)-1H-pyrazolo[3,4-d]pyrimidin-1-yl)ethyl)-3-(3-fluorophenyl)-4H-chromen-4-one] |
|  |  | < 25 |  | 268 to 270 | 50 to 100 | < 25 |  | CCC(c1oc2ccccc2c(=O)c1-c1cccc(F)c1)n1nc(-c2ccc3c(C)n[nH]c3c2)c2c(N)ncnc21 (stereo not drawn) [Example 116, 2-(1-(4-amino-3-(3-methyl-1H-indazol-6-yl)-1H-pyrazolo[3,4-d]pyrimidin-1-yl)propyl)-3-(3-fluorophenyl)-4H-chromen-4-one] |
|  |  | 25 to 50 |  | 207 to 209 | < 50 | < 25 |  | Nc1ncnc2c1ncn2Cc1oc2ccc(F)cc2c(=O)c1-c1ccccc1 [Example 118, 2-((6-amino-9H-purin-9-yl)methyl)-6-fluoro-3-phenyl-4H-chromen-4-one] |
|  |  | < 25 |  | 180 to 183 | < 50 | < 25 |  | Nc1ncnc2c1ncn2Cc1oc2ccc(F)cc2c(=O)c1-c1cccc(F)c1 [Example 119, 2-((6-amino-9H-purin-9-yl)methyl)-6-fluoro-3-(3-fluorophenyl)-4H-chromen-4-one] |
|  |  | < 25 |  | 194 to 197 | < 50 | < 25 |  | C[C@@H](Nc1ncnc2[nH]cnc12)c1oc2ccc(F)cc2c(=O)c1-c1cccc(F)c1 [Example 124, (R)-2-(1-(9H-purin-6-ylamino)ethyl)-6-fluoro-3-(3-fluorophenyl)-4H-chromen-4-one] |
|  |  | < 25 |  | 211 to 214 | < 50 | < 25 |  | Nc1ncnc2c1c(-c1cn[nH]c1)nn2Cc1oc2ccc(F)cc2c(=O)c1-c1ccccc1 [Example 125, 2-((4-amino-3-(1H-pyrazol-4-yl)-1H-pyrazolo[3,4-d]pyrimidin-1-yl)methyl)-6-fluoro-3-phenyl-4H-chromen-4-one] |
|  |  | < 25 |  | 224 to 227 | < 50 | < 25 |  | COc1cc(OC)cc(-c2nn(C(C)c3oc4ccccc4c(=O)c3-c3cccc(F)c3)c3ncnc(N)c23)c1 (stereo not drawn) [Example 130, 2-(1-(4-amino-3-(3,5-dimethoxyphenyl)-1H-pyrazolo[3,4-d]pyrimidin-1-yl)ethyl)-3-(3-fluorophenyl)-4H-chromen-4-one] |
|  |  | < 25 |  | 234 to 236 | < 50 | 25 to 50 |  | COc1c(C)cc(-c2nn(C(C)c3oc4ccccc4c(=O)c3-c3cccc(F)c3)c3ncnc(N)c23)cc1C (stereo not drawn) [Example 131, 2-(1-(4-amino-3-(4-methoxy-3,5-dimethylphenyl)-1H-pyrazolo[3,4-d]pyrimidin-1-yl)ethyl)-3-(3-fluorophenyl)-4H-chromen-4-one] |
|  |  | 50 to 100 |  | 225 to 226 | < 50 | < 25 |  | CC(c1oc2ccccc2c(=O)c1-c1cccc(F)c1)n1nc(-c2ccc3c(c2)OCCO3)c2c(N)ncnc21 (stereo not drawn) [Example 133, 2-(1-(4-amino-3-(2,3-dihydrobenzo[b][1,4]dioxin-6-yl)-1H-pyrazolo[3,4-d]pyrimidin-1-yl)ethyl)-3-(3-fluorophenyl)-4H-chromen-4-one] |
|  |  | 25 to 50 | 25 to 50 | 218 to 220 | < 50 |  |  | CC(c1oc2ccccc2c(=O)c1-c1cccc(F)c1)n1nc(-c2ccc(Oc3ccccc3)cc2)c2c(N)ncnc21 (stereo not drawn) [Example 139, 2-(1-(4-amino-3-(4-phenoxyphenyl)-1H-pyrazolo[3,4-d]pyrimidin-1-yl)ethyl)-3-(3-fluorophenyl)-4H-chromen-4-one] |
|  |  | 25 to 50 | 25 to 50 | 214 to 216 | < 50 |  |  | CC(c1oc2ccccc2c(=O)c1-c1cccc(F)c1)n1nc(-c2ccc(OCc3ccccc3)c(Cl)c2)c2c(N)ncnc21 (stereo not drawn) [Example 140, 2-(1-(4-amino-3-(4-(benzyloxy)-3-chlorophenyl)-1H-pyrazolo[3,4-d]pyrimidin-1-yl)ethyl)-3-(3-fluorophenyl)-4H-chromen-4-one] |
|  |  | 25 to 50 | 50 to 100 | 198 to 200 | 50 to 100 |  |  | CC(C)Oc1ccc(-c2nn(C(C)c3oc4ccccc4c(=O)c3-c3cccc(F)c3)c3ncnc(N)c23)cc1Cl (stereo not drawn) [Example 141, 2-(1-(4-amino-3-(3-chloro-4-isopropoxyphenyl)-1H-pyrazolo[3,4-d]pyrimidin-1-yl)ethyl)-3-(3-fluorophenyl)-4H-chromen-4-one] |
|  |  | 25 to 50 | < 25 | 218 to 220 | < 50 |  |  | CC(c1oc2ccccc2c(=O)c1-c1cccc(F)c1)n1nc(-c2cccc(N(C)C)c2)c2c(N)ncnc21 (stereo not drawn) [Example 142, 2-(1-(4-amino-3-(3-(dimethylamino)phenyl)-1H-pyrazolo[3,4-d]pyrimidin-1-yl)ethyl)-3-(3-fluorophenyl)-4H-chromen-4-one] |
